Common to all, as to assay: NCI anticancer screen, dose series, 48 h
Experiment [1] concerns SNB-75 CNS.
The test system of experiment [2] is SK-OV-3 ovarian.
Experiment [3] relates to A549 NSCLC.
In experiment [4] the test system is HOP-62 NSCLC.
The subject of experiment [5] is OVCAR-4 ovarian.
Experiment [6] relates to HT29 colon.
Experiment [7] relates to MOLT-4 leukemia.
Experiment [8] has as its system PC-3 prostate.
Experiment [9] relates to CAKI-1 renal.
The test system of experiment [10] is HS 578T breast.

Values joined by “and” are separate entries in the source; they are usually repeats but may differ in a detail not shown here. Identical values can stand only once.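 Where inhibition never reached the appropriate level, the endpoint shown equals the highest concentration tested. Otherwise, values were interpolated linearly from a five-concentration, 48-hour dose response in 96-well plates. GI50 marks 50% less growth. TGI denotes the concentration required for complete inhibition of growth.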

As to `O=S(=O)(NCCCNc1cc(-c2cn(-c3ccccc3)nc2-c2cccc(O)c2)ccn1)c1ccc(Cl)cc1`, the GI50 in experiment [1] was 1.45 µM; in experiment [2] it was 2.35 µM; in experiment [3] it was 2.64 µM; in experiment [4], 1.52 µM; in experiment [5], 1.67 µM; in [6] it was 0.471 µM. In addition, the GI50 in experiment [7] is 1.26 µM; in [8], 1.74 µM; in [9], 2.3 µM; in experiment [10], 1.16 µM. In addition, the TGI amounted to 7.99 µM in [1]; 7.35 µM in experiment [2]; 10.1 µM in experiment [3]; 3.25 µM in experiment [4]; 5.92 µM in experiment [5]; 1.7 µM in experiment [6]. The TGI in [7] is 3.69 µM; in experiment [8] it was 6.1 µM; in experiment [9], 12 µM; in [10], 4.77 µM.

Take `O=C(CCl)Nc1ccc2c(c1)C(=O)c1ccc(NC(=O)CCl)cc1C2=O`: the GI50 in experiment [1] was 1.01 µM; in [2] it was 1.63 µM; in experiment [3] it was 2.79 µM; in experiment [6] it was 0.314 µM; in [7], 0.241 µM; in experiment [8], 0.876 µM. The GI50 in [9] is 0.683 µM; in [10], 1.29 µM. Further, the TGI in experiment [1] was 2.22 µM; in experiment [2], 7.01 µM; in [3] it was over 100 µM; in experiment [6], 4.21 µM; in experiment [7] it was 2.13 µM; in experiment [8] it was 2.5 µM. For the same molecule, the TGI was determined as 1.98 µM in [9] and 9.57 µM in experiment [10].

As for `CCN(CC)CC(O)C1CCC(c2ccccc2)CC1` (stereo not given), the TGI is 64.4 µM in [1]; 36.6 µM in [2]; over 100 µM in experiment [3]; over 100 µM in experiment [4]; 47.7 µM in experiment [6]; over 100 µM in [7]. Further, the TGI in experiment [8] was over 100 µM; in experiment [9], 42.2 µM; in experiment [10], over 100 µM.

Take `CCN1CCN(C(=O)[C@]23CCC(C)(C)C[C@@H]2C2=CC[C@@H]4[C@@]5(C)C/C(=C/c6cccnc6)C(=O)C(C)(C)[C@@H]5CC[C@@]4(C)[C@]2(C)CC3)CC1`: the GI50 is 4.19 µM in experiment [2]; 2.62 µM in [3]; 1.88 µM in [4]; 2.17 µM in [5]; 1.71 µM in [6]; 1.03 µM in [7]. The GI50 in experiment [8] is 1 µM; in [9], 2.08 µM; in experiment [10], 1.83 µM. Also, the TGI in experiment [2] was 16.8 µM; in [3], 13.4 µM; in experiment [4], 3.75 µM; in experiment [5], 7.85 µM; in experiment [6] it was 4.67 µM; in [7], 5.2 µM. For the same molecule, the TGI in experiment [8] was found to be 2.79 µM; in experiment [9], 11.8 µM; in experiment [10], 5.37 µM.

Regarding `Oc1cc2ccccc2cc1-c1n[nH]c(=S)n1-c1ccc(Cl)cc1`, the GI50 in experiment [1] was 28.7 µM; in [2], 28.6 µM; in [3], 25.3 µM; in experiment [5] it was 40.5 µM; in [6] it was 24.6 µM; in experiment [7], 22.7 µM. The GI50 in [8] was 15.7 µM; in experiment [9], 12.5 µM; in [10] it was 12.4 µM. Further, the TGI in experiment [1] is over 100 µM; in [2], over 100 µM; in [3], over 100 µM; in experiment [5], over 100 µM; in experiment [6] it was 76.3 µM; in experiment [7] it was over 100 µM. For the same molecule, the TGI in [8] is over 100 µM; in experiment [9] it was 39.4 µM; in experiment [10], 90.2 µM.

`O=C1C(Cl)=C(Nc2cccc(O)c2)C(=O)N1c1cccc(Cl)c1Cl`: the GI50 was 32.9 µM in experiment [2]; 15 µM in [3]; 15.9 µM in [4]; 15.6 µM in [5]; 18.5 µM in [6]; 2.31 µM in [7]. Further, the GI50 in [8] was 6.92 µM; in [9], 3.14 µM; in experiment [10], 1.71 µM. The TGI was over 100 µM in experiment [2]; 45.9 µM in experiment [3]; 62.9 µM in [4]; 40.5 µM in experiment [5]; 58.3 µM in experiment [6]; 11.8 µM in [7]. The TGI in experiment [8] was found to be 28.6 µM; in experiment [9], 20.2 µM; in [10], 14.4 µM.

Turning to `Cc1nn(-c2ccc(Br)cc2)c(C)c1CC(=O)c1cc(O)ccc1O`, the GI50 in experiment [1] is 10.8 µM; in [3] it was 10.5 µM; in experiment [5], 15.9 µM; in experiment [6] it was 13.2 µM; in experiment [7], 3.26 µM; in experiment [8], 9.97 µM. The results for the GI50 in experiment [9] and in experiment [10] were 12.2 µM and 22.7 µM, respectively. In addition, the TGI is 31.1 µM in [1]; 20.7 µM in experiment [3]; over 50 µM in experiment [5]; 36.7 µM in experiment [6]; over 50 µM in [7]; over 50 µM in [8]. In addition, the values for the TGI in experiment [9] and in [10] were 27.3 µM and over 50 µM, respectively.

Take `COc1ccc(Cn2c(Br)c3c(c2-c2cc(OC)c(OC)c(OC)c2)CCc2sc(NC(C)=O)nc2-3)cc1`: the GI50 is 1.82 µM in [1]; 3.92 µM in experiment [3]; 5.52 µM in experiment [4]; 3.49 µM in experiment [5]; 3.41 µM in experiment [6]; 4.37 µM in experiment [7]. The GI50 is 3.44 µM in experiment [8] and 4.21 µM in experiment [9]. For the same molecule, the TGI is over 100 µM in experiment [1]; over 100 µM in experiment [3]; over 100 µM in experiment [4]; over 100 µM in experiment [5]; 11.1 µM in experiment [6]; over 100 µM in experiment [7]. Moreover, the TGI in [8] and in experiment [9] was over 100 µM each time.

`CNC1C(OC2C(OC3C(O)C(O)C(O)C(O)C3O)OC(C)C2(O)CO)OC(CO)C(O)C1O` (stereo not given) (tested in a mixture with another compound): the TGI in [1], in [2], in experiment [3], in experiment [4], in [5] and in [6] was over 100 µM throughout. For the same molecule, the TGI in [7], in experiment [8] and in experiment [10] was over 100 µM in each case.

Take `COc1ccc(-c2coc3cc(OC)cc(O)c3c2=O)cc1`: the TGI in experiment [1], in experiment [2], in experiment [3], in experiment [4], in experiment [5] and in experiment [6] was over 100 µM each time. Besides, the TGI in experiment [8], in experiment [9] and in experiment [10] was over 100 µM in each case.

Turning to `O=[N+]([O-])c1ccc(-c2cn(-c3ccc(Cl)cc3)cn2)cc1`, the TGI was 35.2 µM in experiment [1]; 24.4 µM in experiment [2]; over 100 µM in [3]; 34.6 µM in [4]; over 100 µM in [6]; over 100 µM in [7]. Moreover, the TGI in experiment [8], in [9] and in experiment [10] was over 100 µM in each case.

Regarding `C=C1N(C)c2ccc(Cl)cc2C1(C)C`, the GI50 is 4.25 µM in [1]; 18.1 µM in [2]; 17.4 µM in experiment [3]; 11.2 µM in [4]; 4.83 µM in experiment [5]; 3.24 µM in experiment [6]. Besides, the values for the GI50 in experiment [7], in experiment [9] and in [10] were 6.94 µM, 19.2 µM and 6.34 µM, respectively. For the same molecule, the TGI in experiment [1] is 77.3 µM; in experiment [2], 65.4 µM; in [3], over 100 µM; in experiment [4], 72.2 µM; in [5], over 100 µM; in experiment [6] it was 18.6 µM. The TGI in experiment [7] is 55 µM; in [9] it was 68.5 µM; in [10], over 100 µM.

Take `CC(=O)OCC1OC(n2c(-c3ccccc3)c(C)c(C)c(C#N)c2=S)C(OC(C)=O)C(OC(C)=O)C1OC(C)=O` (stereo not given): the TGI in experiment [1] was over 100 µM; in experiment [2], 48.8 µM and > 100 µM; in [3], over 100 µM; in [4], 40.4 µM and > 100 µM; in experiment [5], 34.1 µM and > 100 µM; in [6] it was over 100 µM. The TGI was over 100 µM in experiment [7], over 100 µM in experiment [8] and over 50 µM in experiment [9]. The GI50 was 13.2 µM and > 100 µM in experiment [2]; 25.7 µM and > 100 µM in experiment [3]; 14.3 µM and > 100 µM in [4]; 14.8 µM and 76.1 µM in experiment [5].

As for `CC(C)Oc1ccc(C(=O)N[C@H](CNC(=O)CN(C)C)Cc2ccc(-c3cn4cccc([C@H](C)O)c4n3)cc2)cc1Cl`, the GI50 was 0.0222 µM in experiment [1]; 0.0694 µM in experiment [2]; 0.0507 µM in experiment [3]; 0.316 µM in experiment [5]; 0.035 µM in [6]; 0.0441 µM in experiment [7]. The GI50 in experiment [8] was 0.0664 µM; in experiment [9], 0.538 µM; in experiment [10], 1.38 µM. The TGI in experiment [1] was 13.3 µM; in experiment [2] it was 22.9 µM; in experiment [3], 22.1 µM; in experiment [5], 18.7 µM; in experiment [6], 13 µM; in experiment [7] it was 18 µM. Moreover, the figures for the TGI in experiment [8], in [9] and in experiment [10] were 21.4 µM, 17.9 µM and 33.4 µM, respectively.

For `O=CC1(C2(C=O)c3ccccc3-c3ccccc32)c2ccccc2-c2ccccc21`, the GI50 in [1] was 3.29 µM; in experiment [4], 6.17 µM; in experiment [5] it was 2.02 µM; in experiment [6] it was 1.32 µM; in [7], 1.38 µM; in experiment [8], 1.44 µM. Also, the GI50 was 1.27 µM in experiment [9] and 2.7 µM in experiment [10]. For the same molecule, the TGI in experiment [1] was found to be 8.08 µM; in experiment [4], 10.4 µM; in experiment [5] it was 5.26 µM; in experiment [6], 2.51 µM; in experiment [7], 3.33 µM; in experiment [8] it was 4.65 µM. Also, the TGI in [9] came to 3.62 µM; in [10], 7.49 µM.

`Cc1nc2cc(N)c(Cl)cc2[nH]1`: the TGI in experiment [1], in experiment [2], in [3], in experiment [4], in experiment [6] and in experiment [7] was over 100 µM each time. Also, the TGI in [8], in experiment [9] and in experiment [10] was over 100 µM in each case.

Regarding `CC[C@]12CCCN3CC[C@]4(C(=C(C(=O)OC)C1)Nc1ccccc14)[C@@H]32`, the GI50 in [1] was 13.6 µM; in experiment [3], 16.3 µM; in [4] it was 15.6 µM; in experiment [5], 15.4 µM; in experiment [6], 14.1 µM; in experiment [7], 18.8 µM. The GI50 is 20.5 µM in experiment [8], 11.8 µM in [9] and 17.3 µM in [10]. The TGI in experiment [1] is 61.9 µM; in experiment [3], 42.6 µM; in experiment [4] it was 32.7 µM; in [5], 54.8 µM; in experiment [6], 33.9 µM; in experiment [7], 43.7 µM. Moreover, the TGI in experiment [8] worked out at 61.5 µM; in experiment [9], 32.8 µM; in experiment [10], 76.1 µM.

For `COc1cc(-c2cc(CCC(=O)Nc3ccccc3[N+](=O)[O-])n(-c3ccc([N+](=O)[O-])cc3[N+](=O)[O-])n2)ccc1O`, the GI50 was over 10 µM in experiment [1]; over 100 µM in experiment [2]; over 100 µM in experiment [3]; over 100 µM in [4]; over 100 µM in experiment [5]; over 100 µM in [7]. The GI50 in experiment [9] is over 100 µM. Moreover, the TGI in [1] was over 100 µM; in [2], over 100 µM; in experiment [3] it was over 100 µM; in experiment [4] it was over 100 µM; in experiment [5], over 100 µM; in experiment [6] it was over 10 µM. Besides, the TGI in experiment [7] and in experiment [9] was over 100 µM each time.

Source of the values: PubChem BioAssay (NCI).
